# Assays:
# Vibrio = test: Antimicrobial activity against Vibrio at 50 ug/disk after 48 hrs; format: functional; conditions: read-out: IZ
# Alteromonas = test: Antimicrobial activity against Alteromonas at 50 ug/disk after 48 hrs; format: functional; conditions: read-out: IZ
# Corynebacterium [1] = test: Antimicrobial activity against Corynebacterium at 50 ug/disk after 48 hrs; format: functional; conditions: read-out: IZ
# Bacillus [2] = test: Antimicrobial activity against Bacillus at 50 ug/disk after 48 hrs; format: functional; conditions: read-out: IZ
# Flavobacterium [3] = test: Antimicrobial activity against Flavobacterium at 50 ug/disk after 48 hrs; format: functional; conditions: read-out: IZ
# Corynebacterium [4] = test: Antimicrobial activity against Corynebacterium at 10 ug/disk after 48 hrs; format: functional; conditions: read-out: IZ
# Bacillus [5] = test: Antimicrobial activity against Bacillus at 10 ug/disk after 48 hrs; format: functional; conditions: read-out: IZ
# Flavobacterium [6] = test: Antimicrobial activity against Flavobacterium at 10 ug/disk after 48 hrs; format: functional; conditions: read-out: IZ
# Carassius auratus = test: Toxicity against goldfish at 500 ug; format: organism-based; conditions: in vivo
structure (smiles),measurement,setting,value
Brc1c[nH]c(Br)c1Br,zone of inhibition at 50 µg/disc,Vibrio,> 5 mm
same,zone of inhibition at 50 µg/disc,Alteromonas,> 5 mm
same,zone of inhibition at 50 µg/disc,Corynebacterium [1],> 5 mm
same,zone of inhibition at 50 µg/disc,Bacillus [2],> 5 mm
same,zone of inhibition at 50 µg/disc,Flavobacterium [3],> 5 mm
same,zone of inhibition at 10 µg/disc,Corynebacterium [4],2 mm
same,zone of inhibition at 10 µg/disc,Bacillus [5],2 mm
same,zone of inhibition at 10 µg/disc,Flavobacterium [6],2 mm
same,Activity,Carassius auratus,Non-toxic

# From ChEMBL document CHEMBL1158907, “2,3,4-Tribromopyrrole from the Marine Polychaete Polyphysia crassa” (J Nat Prod, 1990)
